Counter-ions that a name gives are not always drawn.
Assays:
[1] = Subjective rating of drug suspensions immediately after preparation (ease of preparation, homogeneity, viscosity); assay type: physicochemical; conditions: for phase separation of the suspending agent from the liquid phase: drug preparation in OO; for Homogeneity: scale 0-10, 0=drug settles completely and immediately, 10=consistently homogenous; for Viscosity: subjective scale 0-10, 0=water, 10=thick molasses
Experimental: (§1) Suspensions of baclofen, bethanechol chloride, labetalol hydrochloride, verapamil hydrochloride, or ibuprofen were prepared in VE1 or OO. […] The wetted powder was incorporated into 50 ml VE1 or OO by geometric dilution and stored in individual non-opaque containers. […] The concentrations of the pharmaceutical compounds in suspension represent ‘typical’ prescribed preparations.
The suspensions were evaluated immediately after preparation with respect to ease of preparation, homogeneity, and viscosity by the pharmaceutical technician preparing the suspensions. The suspensions were rated on a subjective scale of 0-10: ease of preparation, 0=difficult, 10=very easy; homogeneity, 0=drug settles completely and immediately, 10=consistently homogenous in appearance along the vertical axis; viscosity, 0=water, 10=thick molasses.

[2] = Settling and resuspendability of drug suspensions after 7 days storage; assay type: physicochemical; conditions: for Settling: 7 days, dark, room temperature, scale 0-10, 10=none, 0=all at bottom; for Resuspendability: after 7 days, moderate shaking, scale 0-10, 10=perfectly homogenous
Experimental: as §1
The suspensions were stored in the dark at room temperature for 7 days and then settling of the drugs and resuspendability of sedimented drug in OO or VE1 was evaluated. Settling and resuspendability of the drugs was rated on a subjective scale of 0-10: settling (how much product apparent at bottom of container, 10=none, 0=all); resuspendability (how homogenous does the product appear after moderate shaking, 10=perfectly homogenous, 0=not homogenous (heterogeneous)). Resuspendability of sedimented ingredients was evaluated after evaluation of settling. The suspensions were shaken deliberately (stepwise), with frequent inspections of the bottom of the container.

[3] = drug suspension in OO, hydrochloride
[4] = drug suspension in OO, listed as verapamil hydrochloride, hydrochloride
[5] = drug suspension in OO, listed as ibuprofen
[6] = drug suspension in OO, listed as bethanechol chloride

SMILES	Homogeneity ([1]; drug suspension in OO)	Viscosity ([1]; drug suspension in OO)	Homogeneity ([1]; drug suspension in VE1)	Viscosity ([1]; drug suspension in VE1)	Settling ([2]; drug suspension in VE1)	Resuspendability ([2]; drug suspension in VE1)	Settling ([2]; drug suspension in OO)	Settling [2, 5]	Resuspendability ([2]; drug suspension in OO)	Resuspendability [2, 5]	Settling [2, 6]	Resuspendability [2, 6]	Settling ([2]; drug suspension in OO, listed as labetalol hydrochloride, hydrochloride)	Resuspendability ([2]; drug suspension in OO, listed as Labetalol hydrochloride, hydrochloride)	phase separation of the suspending agent from the liquid phase [1]	Settling [2, 3]	Settling [2, 4]	Resuspendability [2, 3]	Resuspendability [2, 4]
COc1ccc(CCN(C)CCCC(C#N)(c2ccc(OC)c(OC)c2)C(C)C)cc1OC (stereo not drawn) [Verapamil Hydrochloride, verapamil hydrochloride]	8	2	9	7	7	9									phase separation	2	large portion	6	more difficult to resuspend
CC(C[N+](C)(C)C)OC(N)=O (stereo not drawn) [Bethanechol Chloride, bethanechol chloride]	9	5	9	7	8	9	6		9		minimal to moderate sedimentation	easily resuspended							

Continued, in another order:

Homogeneity ([1]; drug suspension in OO)	Viscosity ([1]; drug suspension in OO)	Homogeneity ([1]; drug suspension in VE1)	Viscosity ([1]; drug suspension in VE1)	Settling ([2]; drug suspension in VE1)	Resuspendability ([2]; drug suspension in VE1)	Settling ([2]; drug suspension in OO)	Settling [2, 5]	Resuspendability ([2]; drug suspension in OO)	Resuspendability [2, 5]	Settling [2, 6]	Resuspendability [2, 6]	Settling ([2]; drug suspension in OO, listed as labetalol hydrochloride, hydrochloride)	Resuspendability ([2]; drug suspension in OO, listed as Labetalol hydrochloride, hydrochloride)	SMILES	phase separation of the suspending agent from the liquid phase [1]	Settling [2, 3]	Settling [2, 4]	Resuspendability [2, 3]	Resuspendability [2, 4]
9	4	9	7	8	9	7	minimal to moderate sedimentation	9	easily resuspended					CC(C)Cc1ccc(C(C)C(=O)O)cc1 (stereo not drawn) [Ibuprofen, ibuprofen]					
9	6	9	7	8	9									NCC(CC(=O)O)c1ccc(Cl)cc1 (stereo not drawn) [Baclofen, baclofen]					
3	1	9	7	9	9							large portion	more difficult to resuspend	CC(CCc1ccccc1)NCC(O)c1ccc(O)c(C(N)=O)c1 (stereo not drawn) [Labetalol Hydrochloride, labetalol hydrochloride]	phase separation	2		3	

Reference: patent US8986729B2, “Palatable suspending vehicle for pharmaceutical ingredients” (Fagron, Inc., priority 2004, dated 2015)
